Measurements: patent US11066416B2, “Rapafucin derivative compounds and methods of use thereof” (The Johns Hopkins University, priority 2016, dated 2021)

Assays:
Assay type in all cases: cell-based
293T = assay: Nucleoside uptake assay (uptake) using 3H-Thymidine, 293T; conditions: 293T cells
Procedure: (§1) Nucleoside Uptake Assay (uptake). Nuceloside uptake assays were performed with using 3H-Thymidine as described in Guo et al. (2018) Nat. Chem. 11:254-63. Specific cell lines are indicated in each assay and cultured in complete growth media. Activity is scored according to the IC50 values relative to DMSO control. “Low” indicates an IC50 greater than 600 nM, “Medium” indicates an IC50 between 300 nM and 600 nM “High” indicates an IC50 less than 300 nM. “Rel.Uptake” refers to uptake activity characterization relative to a single concentration assay. “Low” indicates a response greater than 0.6 times the activity relative to DMSO, “Medium” indicates a response between 0.6 and 0.3 times the activity relative to DMSO, “High” indicates a response less than 0.3 times the activity relative to DMSO.

[1] = system: nucleoside uptake (3H-Thymidine); assay: Rel.Uptake: nucleoside uptake, single concentration assay, cell line as indicated in each table; conditions: response relative to DMSO
Procedure: as §1

[2] = system: nucleoside uptake (3H-Thymidine); assay: Nucleoside uptake assay (uptake) using 3H-Thymidine, IC50, cell line as indicated in each table (none given in Table 8); conditions: 3H-Thymidine uptake; cell line not given
Procedure: as §1

[3] = IC50 class relative to DMSO control

| SMILES | Uptake, 293T (293T; [3]) | IC50 [2] [nM] | further results |
| --- | --- | --- | --- |
| COc1ccc(CC[C@H]2OC(=O)[C@@H]3CCCCN3C(=O)C(=O)C(C)(C)COC(=O)C=CCCN(C)C(=O)[C@H](CC(C)C)N(C)C(=O)[C@H]3CCCN3C(=O)[C@H](CC(=O)OC(C)(C)C)N(C)C(=O)C(c3ccccc3)NC(=O)CCC(=O)Nc3cccc2c3)cc1OC (stereo partly shown) [Compound 1066] | high | – | Rel. Uptake, 293T ([1]; 293T): high |
| COc1ccc(CC[C@H]2OC(=O)[C@@H]3CCCCN3C(=O)C(=O)C(C)(C)COC(=O)C=CCCN(C)C(=O)[C@H](CC(C)C)N(C)C(=O)[C@H]3CCCN3C(=O)[C@H](Cc3ccc(CC(=O)OC(C)(C)C)cc3)NC(=O)C(c3ccccc3)NC(=O)CCC(=O)Nc3cccc2c3)cc1OC (stereo partly shown) [Compound 1081] | medium | – | Rel. Uptake, 293T ([1]; 293T): medium |
| COc1ccc(CC[C@H]2OC(=O)[C@@H]3CCCCN3C(=O)C(=O)C(C)(C)COC(=O)C=CCCN(C)C(=O)[C@H](CC(C)C)N(C)C(=O)[C@H]3CCCN3C(=O)[C@H](Cc3ccc(OCc4ccccc4)cc3)NC(=O)C(c3ccccc3)NC(=O)CCC(=O)Nc3cccc2c3)cc1OC (stereo partly shown) [Compound 1082] | low | – | Rel. Uptake, 293T ([1]; 293T): low |
| COc1ccc(CC[C@H]2OC(=O)[C@@H]3CCCCN3C(=O)C(=O)C(C)(C)COC(=O)C=CCCN(C)C(=O)[C@H](CC(C)C)N(C)C(=O)[C@H]3CCCN3C(=O)[C@H]3C[C@@H](NC(=O)OC(C)(C)C)CN3C(=O)C(c3ccccc3)NC(=O)CCC(=O)Nc3cccc2c3)cc1OC (stereo partly shown) [Compound 1087] | low | – | Rel. Uptake, 293T ([1]; 293T cells): low |
| COc1ccc(CC[C@H]2OC(=O)[C@@H]3CCCCN3C(=O)C(=O)C(C)(C)COC(=O)C=CCCN(C)C(=O)[C@H](CC(C)C)N(C)C(=O)[C@H]3CCCN3C(=O)[C@H](Cc3ccccc3)N(C)C(=O)[C@H](CC(=O)OC(C)(C)C)NC(=O)CCC(=O)Nc3cccc2c3)cc1OC [Compound 1088] | low | – | Rel. Uptake, 293T ([1]; 293T cells): low |
| COc1ccc(CC[C@H]2OC(=O)[C@@H]3CCCCN3C(=O)C(=O)C(C)(C)COC(=O)C=CCCN(C)C(=O)[C@@H](c3ccccc3)NC(=O)[C@H](Cc3ccc(OP(C)(C)=O)cc3)NC(=O)[C@H]3CCCN3C(=O)[C@H](CC(C)C)N(C)C(=O)COc3cccc2c3)cc1OC [Compound 1520] | – | – | Uptake, 293T (293T; Table 16): low; Rel. Uptake, 293T ([1]; 293T, nucleoside uptake): low |
| COc1ccc(CC[C@H]2OC(=O)[C@@H]3CCCCN3C(=O)C(=O)C(C)(C)COC(=O)C=CCCN(C)C(=O)[C@H](CC(C)C)N(C)C(=O)[C@H]3CCCN3C(=O)[C@H](Cc3ccc(O)cc3)NC(=O)C(c3ccccc3)NC(=O)CCC(=O)Nc3cccc2c3)cc1OC (stereo partly shown) [Compound 1522] | high | – | Rel. Uptake, 293T ([1]; 293T, nucleoside uptake): high |
| COc1ccc(CC[C@H]2OC(=O)[C@@H]3CCCCN3C(=O)C(=O)C(C)(C)CNC(=O)C=CCCN(C)C(=O)[C@H](CC(C)C)N(C)C(=O)[C@H]3CCCN3C(=O)[C@H](Cc3ccccc3)N(C)C(=O)C(c3ccccc3)NC(=O)CCC(=O)Nc3cccc2c3)cc1OC (stereo partly shown) [Compound 1555] | high | – | Rel. Uptake, 293T ([1]; 293T, nucleoside uptake): high |
| COc1ccc(CC[C@H]2OC(=O)[C@@H]3CCCCN3C(=O)C(=O)C(C)(C)COC(=O)C=CCCN(C)NC(c3ccccc3)C(=O)N(C)[C@@H](Cc3ccccc3)C(=O)N3CCC[C@@H]3C(=O)N(C)[C@@H](CC(C)C)C(=O)C(=O)CCOc3cccc2c3)cc1OC (stereo partly shown) [Compound 1556] | low | – | Rel. Uptake, 293T ([1]; 293T, nucleoside uptake): low |
| COc1ccc(CC[C@H]2NC(=O)[C@@H]3CCCCN3C(=O)C(=O)C(C)(C)COC(=O)C=CCCN(C)C(=O)[C@H](CC(C)C)N(C)C(=O)[C@H]3CCCN3C(=O)[C@H](Cc3ccccc3)N(C)C(=O)C(c3ccccc3)NC(=O)CCC(=O)Nc3cccc2c3)cc1OC (stereo partly shown) [Compound 1557] | high | – | Rel. Uptake, 293T ([1]; 293T, nucleoside uptake): high |
| COc1ccc(CC[C@H]2OC(=O)[C@@H]3CCCCN3C(=O)C(=O)C(C)(C)COC(=O)C=CCCN(C)C(=O)[C@H](CC(C)C)N(C)C(=O)[C@H]3CCCN3C(=O)[C@H](Cc3ccc(C(=O)NCCO)cc3)NC(=O)[C@H](c3ccccc3)NC(=O)CCC(=O)Nc3cccc2c3)cc1OC [Compound 1558] | – | – | Uptake, 293T (293T; Table 15): high; Rel. Uptake, 293T ([1]; 293T, nucleoside uptake): high |
| COc1ccc(CC[C@H]2OC(=O)[C@@H]3CCCCN3C(=O)C(=O)C(C)(C)COC(=O)C=CCCN(C)C(=O)[C@H](CC(C)C)N(C)C(=O)[C@H]3CCCN3C(=O)[C@H](Cc3ccc(C(=O)Nc4ccccc4)cc3)NC(=O)[C@H](c3ccccc3)NC(=O)CCC(=O)Nc3cccc2c3)cc1OC [Compound 1559] | – | – | Uptake, 293T (293T; Table 15): medium; Rel. Uptake, 293T ([1]; 293T, nucleoside uptake): medium |
| COc1ccc(CC[C@H]2OC(=O)[C@@H]3CCCCN3C(=O)C(=O)C(C)(C)COC(=O)/C=C/CCN(C)C(=O)[C@H](C(C)C)N(C)C(=O)[C@@H]3CCCN3C(=O)[C@@H](Cc3ccccc3)N(C)C(=O)[C@H](C)NC(=O)COc3cccc2c3)cc1OC [Compound 1612] | – | 33.5 | – |
| COCC[C@@H]1NC(=O)COc2cccc(c2)[C@@H](CCc2ccc(OC)c(OC)c2)OC(=O)[C@@H]2CCCCN2C(=O)C(=O)C(C)(C)COC(=O)/C=C/CCN(C)C(=O)[C@H](C(C)C)N(C)C(=O)[C@@H]2CCCN2C(=O)[C@@H](Cc2ccccc2)N(C)C1=O [Compound 1613] | – | 59.5 | – |
| CC[C@H](C)[C@H]1C(=O)N(C)CC/C=C/C(=O)OCC(C)(C)C(=O)C(=O)N2CCCC[C@H]2C(=O)O[C@H](CCc2ccc(OC)c(OC)c2)c2cccc(c2)NC(=O)CCC(=O)N[C@@H](C)C(=O)N(C)[C@H](Cc2ccccc2)C(=O)N2CCC[C@H]2C(=O)N1C [Compound 1614] | – | 34.4 | – |
| CCC[C@@H]1NC(=O)CCC(=O)Nc2cccc(c2)[C@@H](CCc2ccc(OC)c(OC)c2)OC(=O)[C@@H]2CCCCN2C(=O)C(=O)C(C)(C)COC(=O)/C=C/CCN(C)C(=O)[C@H]([C@@H](C)CC)N(C)C(=O)[C@@H]2CCCN2C(=O)[C@@H](Cc2ccccc2)N(C)C1=O [Compound 1615] | – | 12.2 | – |
| CC[C@H](C)[C@H]1C(=O)N(C)CC/C=C/C(=O)OCC(C)(C)C(=O)C(=O)N2CCCC[C@H]2C(=O)O[C@H](CCc2ccc(OC)c(OC)c2)c2cccc(c2)NC(=O)CCC(=O)N[C@@H](c2ccccc2)C(=O)N(C)[C@H](Cc2ccccc2)C(=O)N2CCC[C@H]2C(=O)N1C [Compound 1616] | – | 100 | – |
| CC[C@H](C)[C@H]1C(=O)N(C)CC/C=C/C(=O)OCC(C)(C)C(=O)C(=O)N2CCCC[C@H]2C(=O)O[C@H](CCc2ccc(OC)c(OC)c2)c2cccc(c2)OCC(=O)N[C@@H](C)C(=O)N(C)[C@H](Cc2ccccc2)C(=O)N2CCC[C@H]2C(=O)N1C [Compound 1617] | – | 34.1 | – |
| CCC[C@@H]1NC(=O)COc2cccc(c2)[C@@H](CCc2ccc(OC)c(OC)c2)OC(=O)[C@@H]2CCCCN2C(=O)C(=O)C(C)(C)COC(=O)/C=C/CCN(C)C(=O)[C@H]([C@@H](C)CC)N(C)C(=O)[C@@H]2CCCN2C(=O)[C@@H](Cc2ccccc2)N(C)C1=O [Compound 1618] | – | 173 | – |
| COc1ccc(CC[C@H]2OC(=O)[C@@H]3CCCCN3C(=O)C(=O)C(C)(C)COC(=O)/C=C/CCN(C)C(=O)[C@H](C)N(C)C(=O)[C@@H]3CCCN3C(=O)[C@@H](Cc3ccccc3)N(C)C(=O)[C@H](C)NC(=O)COc3cccc2c3)cc1OC [Compound 1619] | – | 66.7 | – |
| CCCC[C@H]1C(=O)N(C)CC/C=C/C(=O)OCC(C)(C)C(=O)C(=O)N2CCCC[C@H]2C(=O)O[C@H](CCc2ccc(OC)c(OC)c2)c2cccc(c2)OCC(=O)NCC(=O)N(C)[C@H](Cc2ccccc2)C(=O)N2CCC[C@H]2C(=O)N1C [Compound 1620] | – | 13.9 | – |
| CCCC[C@H]1C(=O)N(C)CCC=CC(=O)OCC(C)(C)C(=O)C(=O)N2CCCC[C@H]2C(=O)O[C@H](CCc2ccc(OC)c(OC)c2)c2cccc(c2)OCC(=O)N[C@@H](C)C(=O)N(C)[C@H](Cc2ccccc2)C(=O)N2CCC[C@H]2C(=O)N1C [Compound 1621] | – | 9.76 | – |
| COc1ccc(CC[C@H]2OC(=O)[C@@H]3CCCCN3C(=O)C(=O)C(C)(C)COC(=O)C=CCCN(C)C(=O)[C@H](CC(C)C)N(C)C(=O)[C@@H]3CCCN3C(=O)[C@@H](Cc3ccccc3)N(C)C(=O)CNC(=O)COc3cccc2c3)cc1OC [Compound 1622] | – | 28.5 | – |
| COc1ccc(CC[C@H]2OC(=O)[C@@H]3CCCCN3C(=O)C(=O)C(C)(C)COC(=O)C=CCCN(C)C(=O)[C@H](CC(C)C)N(C)C(=O)[C@@H]3CCCN3C(=O)[C@@H](Cc3ccccc3)N(C)C(=O)[C@H](C)NC(=O)COc3cccc2c3)cc1OC [Compound 1623] | – | 10.5 | – |
| COc1ccc(CC[C@H]2OC(=O)[C@@H]3CCCCN3C(=O)C(=O)C(C)(C)COC(=O)C=CCCN(C)C(=O)[C@H](CC(C)C)N(C)C(=O)[C@@H]3CCCN3C(=O)[C@@H](Cc3ccccc3)N(C)C(=O)[C@H](C)NC(=O)CCC(=O)Nc3cccc2c3)cc1OC [Compound 1624] | – | 31.4 | – |
| CCC[C@H]1C(=O)N(C)CCC=CC(=O)OCC(C)(C)C(=O)C(=O)N2CCCC[C@H]2C(=O)O[C@H](CCc2ccc(OC)c(OC)c2)c2cccc(c2)OCC(=O)NCC(=O)N(C)[C@H](Cc2ccccc2)C(=O)N2CCC[C@H]2C(=O)N1C [Compound 1625] | – | 42.3 | – |
| COc1ccc(CC[C@H]2OC(=O)[C@@H]3CCCCN3C(=O)C(=O)C(C)(C)COC(=O)C=CCCN(C)C(=O)[C@@H](C)N(C)C(=O)[C@@H]3CCCN3C(=O)[C@@H](Cc3ccccc3)N(C)C(=O)CNC(=O)COc3cccc2c3)cc1OC [Compound 1626] | – | 155 | – |
| COc1ccc(CC[C@H]2OC(=O)[C@@H]3CCCCN3C(=O)C(=O)C(C)(C)COC(=O)C=CCCN(C)C(=O)C3(CCCCC3)NC(=O)[C@@H]3CCCN3C(=O)[C@@H](Cc3ccccc3)N(C)C(=O)CNC(=O)COc3cccc2c3)cc1OC [Compound 1627] | – | 262 | – |
